Source: US7161032B2, “Sulfonamide derivatives, insecticides for agricultural and horticultural use, and usage thereof” (Nihon Nohyaku Co., Ltd., priority 2002, dated 2007)

Tests used:
Type in all cases: in vivo
[1] = system: Diamond Back Moth (Plutella xylostella); assay: Insecticidal effect on diamond back moth (Test Example 1): egg-bearing Chinese cabbage seedling immersed in 50 ppm liquid chemical
Procedure, shortened: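 Seedlings bearing 2-day-old eggs dipped about 30 s in 50 ppm formulated compound, air-dried, held at 25° C. Hatched larvae counted 6 days after immersion; mortality calculated and graded by criterion. Triplicate groups of 10 insects.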

[2] = system: Common Cutworm (Spodoptera litura); assay: Insecticidal effect on common cutworm (Test Example 2): cabbage leaf piece immersed in 50 ppm liquid chemical; details: common cutworm (Spodoptera litura) second-instar larvae, 8 days after inoculation, 25° C.
Procedure, shortened: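 Cabbage leaf pieces (cv. Shikidori) dipped ~30 s in formulated compound at 50 ppm and air-dried. Second-instar larvae added, kept at 25° C. Dead and alive counted at 8 days to give % mortality, scored against a criterion scale; three groups of 10 insects.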

[3] = system: Smaller Tea Tortrix (Adoxophyes sp.); assay: Insecticidal effect on smaller tea tortrix (Test Example 3): tea leaves immersed in 50 ppm liquid chemical; details: smaller tea tortrix (Adoxophyes sp.) larvae, 8 days after inoculation, 25° C., humidity 70%
Procedure, shortened: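 Tea leaves dipped about 30 seconds in 50 ppm compound preparation, air-dried, then infested with larvae and held at 25° C and 70% humidity. Dead and alive counted 8 days after inoculation; triplicate groups of 10 insects.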

COc1ccccc1NS(=O)(=O)CC(C)NC(=O)c1c(I)cccc1C(=O)Nc1ccc(C(F)(C(F)(F)F)C(F)(F)F)cc1C (stereo not drawn) [1-108]
A (Mortality 100%): Insecticidal effect (mortality grade), Test Example 1 [1] | Insecticidal effect (mortality grade), Test Example 2 [2] | Insecticidal effect (mortality grade), Test Example 3 [3]
